Test system: participants with schizophrenia or related psychotic disorder
Experiment: Positive and Negative Syndrome Scale (PANSS), double-blind placebo-controlled study of CBD as adjunctive therapy
Type: in vivo, human
Description: Example 1 below describes the use of a highly purified cannabis extract comprising cannabidiol (CBD) in a human clinical trial. Example 1 describes data produced in a double-blind, randomised, placebo-controlled, parallel group study of highly purified CBD as adjunctive therapy in first line treatment of schizophrenia or related psychotic disorder.
An eight-week, multi-centre, double-blind, randomised, placebo-controlled, parallel group study was conducted with the aim to determine the efficacy, safety and tolerability of highly purified CBD as adjunctive therapy in first line treatment of schizophrenia or related psychotic disorder.
This study evaluated the efficacy of highly purified CBD compared with placebo on the participant's PANSS Total score, ‘P’, ‘N’, ‘G’, SANS and BACS scores.
Changes from baseline in PANSS scores (Total, ‘P’, ‘N’ and ‘G’), SANS and BACS were recorded at the start of the study (baseline) and at the end of treatment (after 6 weeks treatment with CBD or placebo).
For inclusion in the study participants were required to be male or female aged 18 to 65 years, diagnosed with schizophrenia or a related psychotic disorder (such as schizoaffective or schizophreniform disorder) as defined by the Diagnostic and Statistical Manual of Mental Disorders Version 4. Participants must have been treated for a minimum of four-weeks and be on a stable dose of their current antipsychotic medication. […] A PANSS score in excess of 60 infers that the patient has symptoms related to schizophrenia or related disorders.
The participants were randomised to one of two treatment groups which each consisted of 39 participants. Treatment was administered as either 5 ml CBD (100 mg/ml) oral solution to be taken twice daily or 5 ml matched placebo oral solution to be taken twice daily.
Positive and Negative Syndrome Scale (PANSS)
The PANSS is a medical scale completed by a trained rater and is used for measuring symptom severity of participants with schizophrenia or related psychotic disorder. The name refers to the two types of symptoms in schizophrenia, as defined by the American Psychiatric Association: positive symptoms, which refer to an excess or distortion of normal functions (e.g. hallucinations and delusions), and negative symptoms, which represent a diminution or loss of normal functions.
It is a 30 item rating instrument that assesses the positive and negative symptoms of schizophrenia as well as symptoms of general psychopathology. A PANSS Total score is derived from the sum of the 30 items and the PANSS items are also grouped into three subscales: Positive (‘P’), Negative (‘N’), and General (‘G’). Individual items are rated on a seven point scale, where 1=absent and 7=extreme. This scale was measured at each assessment visit (Visit 1-4).
The minimum score PANSS scoring system is 30 and patients with a score of higher than 60 are considered to still be suffering psychotic symptoms.
PANSS ‘P’ scale measures the severity of: • i) Delusions • ii) Conceptual disorganisation • iii) Hallucinations • iv) […] • v) Grandiosity • vi) Suspiciousness/persecution • vii) Hostility
PANSS ‘N’ scale measures the severity of: • i) Blunted affect • ii) Emotional withdrawal • iii) Poor rapport • iv) Passive/apathetic social withdrawal • v) Difficulty in abstract thinking • vi) Lack of spontaneity and flow of conversation • vii) Stereotyped thinking
PANSS ‘G’ psychopathology scale measures the severity of: • i) Somatic concern • ii) Anxiety • iii) Guilt feelings • iv) Tension • v) Mannerisms and posturing • vi) Depression • vii) Motor retardation • viii) Uncooperativeness • ix) Unusual thought content • x) Disorientation • xi) Poor attention • xii) Lack of judgment and insight • xiii) Disturbance of volition • xiv) Poor impulse control • xv) Preoccupation • xvi) Active social avoidance

[1] = CBD adjunct, 6 weeks, all patients
[2] = CBD adjunct, 6 weeks, patients on amisulpride
[3] = CBD adjunct, 6 weeks, patients on aripiprazole
[4] = CBD adjunct, 6 weeks, patients on olanzapine
[5] = CBD adjunct, 6 weeks, patients on other antipsychotics
[6] = CBD adjunct, 6 weeks, patients on quetiapine
[7] = CBD adjunct, 6 weeks, patients on risperidone

For `C=C(C)[C@@H]1CCC(C)=C[C@H]1c1c(O)cc(CCCCC)cc1O` [CBD, Cannabidiol], the “Change in baseline scores, PANSS total score” value [1] was −11.4, the “Change in baseline scores, PANSS ‘G’ score” value [1] was −5.3 and the “Change in baseline scores, PANSS ‘N’ score” value [1] was −3.1. The “Change in baseline scores, PANSS ‘P’ score” value [1] was −3.1, the “Change in baseline scores, PANSS total” value [2] was −11.3 and the “Change in baseline scores, PANSS ‘P’ score” value [2] was −4.0. The “Change in baseline scores, PANSS total” value [3] was −12.3, the “Change in baseline scores, PANSS ‘P’ score” value [3] was −3.8 and the “Change in baseline scores, PANSS total” value [4] was −17.5. For the same compound, the “Change in baseline scores, PANSS ‘P’ score” value [4] was −3.9, the “Change in baseline scores, PANSS total” value [5] was −10.3 and the “Change in baseline scores, PANSS ‘P’ score” value [5] was −1.4. For the same compound, the “Change in baseline scores, PANSS total” value [6] was −7.5, the “Change in baseline scores, PANSS ‘P’ score” value [6] was −1.7 and the “Change in baseline scores, PANSS total” value [7] was −7.8. For the same compound, the “Change in baseline scores, PANSS ‘P’ score” value [7] was −2.6, the “Responder status for change in baseline scores, PANSS ‘P’ score” value (CBD adjunct, patients with >= 20% change from baseline, P = 0.0679 vs placebo) was 42.9% and the “Responder status for change in baseline scores, PANSS total score” value (CBD adjunct, patients with >= 20% change from baseline, P = 0.0896 vs placebo) was 28.6%. The “Responder status for change in baseline scores, PANSS ‘G’ score” value (CBD adjunct, patients with >= 20% change from baseline, P = 0.2598 vs placebo) was 28.6%, the “Responder status for change in baseline scores, PANSS ‘N’ score” value (CBD adjunct, patients with >= 20% change from baseline, P = 0.7951 vs placebo) was 26.2% and the “Change in baseline scores, PANSS ‘P’ score: difference” value (from here on “Change … PANSS ‘P’ score: difference”) (CBD vs placebo, all patients, P = 0.0188) was “(−1.4)”. For the same compound, the “Change in baseline scores, PANSS total score: difference” value (CBD vs placebo, all patients, P = 0.1332) was “(−2.8)”, the “Change in baseline scores, PANSS ‘G’ score: difference” value (CBD vs placebo, all patients, P = 0.1963) was “(−1.3)” and the “Change in baseline scores, PANSS ‘N’ score: difference” value (CBD vs placebo, all patients, P = 0.8841) was “(−0.1)”. For the same compound, the “Change in baseline scores, PANSS total: difference” value (“Change … PANSS total: difference” for short) (CBD vs placebo, patients on amisulpride, P = 0.5543) was “(7.9)”, the “Change … PANSS ‘P’ score: difference” value (CBD vs placebo, patients on amisulpride, P = 0.8241) was “(−0.5)” and the “Change … PANSS ‘P’ score: difference” value (CBD vs placebo, patients on aripiprazole, P = 0.0345) was “(−3.1)”. For the same compound, the “Change … PANSS total: difference” value (CBD vs placebo, patients on aripiprazole, P = 0.1220) was “(−6.2)”, the “Change … PANSS total: difference” value (CBD vs placebo, patients on olanzapine, P = 0.0067) was “(−10.7)” and the “Change … PANSS ‘P’ score: difference” value (CBD vs placebo, patients on olanzapine, P = 0.1434) was “(−1.5)”. The “Change … PANSS total: difference” value (CBD vs placebo, patients on other antipsychotics, P = 0.2746) was “(−10.6)”, the “Change … PANSS ‘P’ score: difference” value (CBD vs placebo, patients on other antipsychotics, P = 0.9550) was “(−0.2)” and the “Change … PANSS total: difference” value (CBD vs placebo, patients on quetiapine, P = 0.6640) was “(5.1)”. For the same compound, the “Change … PANSS ‘P’ score: difference” value (CBD vs placebo, patients on quetiapine, P = 0.7905) was “(0.6)”, the “Change … PANSS ‘P’ score: difference” value (CBD vs placebo, patients on risperidone, P = 0.4625) was “(−0.8)” and the “Change … PANSS total: difference” value (CBD vs placebo, patients on risperidone, P = 0.6470) was “(1.8)”.
